Publication PMC9848286, “Design, synthesis, and biological investigation of oxadiazolyl, thiadiazolyl, and pyrimidinyl linked antipyrine derivatives as potential non-acidic anti-inflammatory agents” (Journal of Enzyme Inhibition and Medicinal Chemistry, 2023)

What was measured:
[1] = tested on: carrageenan-induced paw edoema; assay: Carrageenan-induced rat paw edoema, paw swelling; assay type: in vivo; details: rats, i.p. 1 h before carrageenan; CLX 30 mg/kg, 4b 36 mg/kg, 4c 40 mg/kg; 1-5 h
Source text: The anti-inflammatory activity of the two selected compounds from the above screening, 4b and 4c was scrutinized in vivo using a paw edema model produced by carrageenan. Male Sprague Dawley rats (180–200 g) were obtained from Vacsera (Giza, Egypt) and maintained at rtunfettered access to food and water in a light-controlled space with a twelve-hour light/dark cycle. The research ethics committee at Mansoura University, Egypt examined and authorized the experiments (code number: 2022–78).
(§1) After overnight fasting, five groups of rats were randomly divided (n = 5). Group I (Control): injected only with the DMSO solution (1.2 ml/kg, i.p, 10% v/v of DMSO in sterile 0.9% saline solution). Group II (Carrageenan): injected with carrageenan [0.1 ml of a freshly prepared solution of carrageenan (1% w/v in sterile 0.9% saline solution) into the sub-plantar region of the right hind paw] and the DSMO solution. Group III (CLX): injected the standard drug CLX (30 mg/kg, i.p, 2.5% w/v in the DMSO solution). Group IV (4 b) injected the test drug 4 b (36 mg/kg, i.p, 2% w/v in the vehicle). Group V (4c): injected the test drug 4c (40 mg/kg, i.p, 2% w/v in the DMSO solution). The selected doses of 4 b and 4c were equimolar to 30 mg/kg CLX. One hour after treatments, edema caused by carrageenan injection as described above. A digital vernier caliper (Elora, Germany) was used to measure the thickness of the paw right prior to injection of carrageenan and thereafter at 1, 2, 3, 4, and 5 h.
The paw edoema (E%) and edoema inhibition rate (I%) were calculated as follow: E%=B−A/A×100,
A: paw thickness (mm) just before carrageenan injection and B: paw thickness (mm) at different time intervals after carrageenan injection: I%=Ec−Et/Ec×100,
Ec: mean paw edoema of the carrageenan group and Et is the paw odema of the tested groups.

[2] = tested on: carrageenan-injected rat paw tissue; assay: Histopathological (H&E) inflammation scoring of carrageenan-inflamed paw tissue; assay type: in vivo; details: rat paw 5 h after carrageenan; CLX 30, 4b 36, 4c 40 mg/kg i.p.; significant (P < 0.05) only with CLX
Method: as §1
(§2) After five hours from carrageenan injection, the rats were euthanized using […] with removal of the inflamed paws. Tissues of rat hind-paw’s pad were collected, and 5-mm pieces were homogenised in iced phosphate buffer saline (pH 7.4) on ice. Next, the prepared homogenate was centrifuged (10,000 g, 15 min, 4 °C) and the obtained supernatant was collected for additional analysis. The remaining tissue was fixed in formalin (10% v/v) for 24 h after which it was inserted in paraffin wax.
(§3) Paraffinized tissue sections were dewaxed in xylene and mounted on slides then […] with hematoxylin-eosin (H&E) for histopathological evaluation of inflammation. Inflammation score from 0 to 5 was given as follows: 0,1,2,3,4, and 5 if there is no, mild, mild/moderate, moderate, moderate/severe, and severe inflammation, respectively.[48] […] Immunostained sections were scored as follows: 0,1, 2 and 3 if there is no, weak, moderate, and strong staining effect, respectively.[49]

NF-κB = assay: Immunohistochemistry of NF-κB p65 expression in paw tissue; assay type: in vivo; details: rat paw 5 h after carrageenan; CLX 30, 4b 36, 4c 40 mg/kg i.p.; significant (P < 0.05) only with CLX
Method: as §1, §2, §3

COX-2 [3] = assay: Immunohistochemistry of COX-2 expression in paw tissue; assay type: in vivo; details: rat paw 5 h after carrageenan; CLX 30, 4b 36, 4c 40 mg/kg i.p.
Method: After overnight fasting, five groups of rats were randomly divided (n = 5). Group I (Control): injected only with the DMSO solution (1.2 ml/kg, i.p, 10% v/v of DMSO in sterile 0.9% saline solution). Group II (Carrageenan): injected with carrageenan [0.1 ml of a freshly prepared solution of carrageenan (1% w/v in sterile 0.9% saline solution) into the sub-plantar region of the right hind paw] and the DSMO solution. […] One hour after treatments, edema caused by carrageenan injection as described above. A digital vernier caliper (Elora, Germany) was used to measure the thickness of the paw right prior to injection of carrageenan and thereafter at 1, 2, 3, 4, and 5 h.
After five hours from carrageenan injection, the rats were euthanized using surgical dislocation with removal of the inflamed paws. Tissues of rat hind-paw’s pad were collected, and 5-mm pieces were homogenised in iced phosphate buffer saline (pH 7.4) on ice. […]
The other set of sections were immunostained to examine expression levels of COX-2 and nuclear factor kappa B (NF-κB p65) using monoclonal antibodies (Thermo Fisher Scientific, MA, United States) and as per the guidelines provided by the manufacturer. Immunostained sections were scored as follows: 0,1, 2 and 3 if there is no, weak, moderate, and strong staining effect, respectively.[49]

PGE2 = PGE2 level in paw tissue homogenate (ELISA); assay type: in vivo, rat; details: for PGE2 paw tissue level in comparison to the CLX group: P < 0.001; for PGE2 paw tissue level compared to the carrageenan group: rat paw 5 h after carrageenan, CLX 30, 4b 36, 4c 40 mg/kg i.p., P < 0.001, 0.05 and 0.001 respectively
Method: as §1, §2
(§4) Levels of prostaglandin E2 (PGE2) and tumour necrosis factor-alpha (TNF-α) were measured in paw tissue homogenate using ELISA kits (Cusabio Technology LLC, TX, United States) and as per the guidelines provided by the manufacturer.

TNF-α = TNF-α level in paw tissue homogenate (ELISA); assay type: in vivo, rat; details: for TNF-α lowering effect compared with CLX: P < 0.01; for TNF-α paw tissue level compared to the carrageenan group: rat paw 5 h after carrageenan, CLX 30, 4b 36, 4c 40 mg/kg i.p., P < 0.001
Method: as §1, §2, §4

nitric oxide (NO) = assay: NO content in paw tissue homogenate (colorimetric kit); assay type: in vivo, rat; details: for NO paw tissue content compared to CLX: P < 0.01
Method: as §1, §2
Contents of malondialdehyde (MDA) as a lipid peroxidation product, and nitric oxide (NO) as anitrosative product, were measured in paw tissue homogenate using colorimetric commercial kits (Biodiagnostic, Giza, Egypt) and as per the guidelines provided by the manufacturer.

COX-2 [4] = target: T1, COX-2 (Homo sapiens, UniProt P35354); assay: In vitro COX-2 inhibition, colorimetric screening assay kit; details: for (SI) in vitro COX-2 selectivity index: COX-1 IC50/COX-2 IC50; for HillSlope (best-fit value), COX-2 inhibition / LogIC50 (best-fit value), COX-2 inhibition: supplementary dose-response curve
T1 sequence (P35354 18-604): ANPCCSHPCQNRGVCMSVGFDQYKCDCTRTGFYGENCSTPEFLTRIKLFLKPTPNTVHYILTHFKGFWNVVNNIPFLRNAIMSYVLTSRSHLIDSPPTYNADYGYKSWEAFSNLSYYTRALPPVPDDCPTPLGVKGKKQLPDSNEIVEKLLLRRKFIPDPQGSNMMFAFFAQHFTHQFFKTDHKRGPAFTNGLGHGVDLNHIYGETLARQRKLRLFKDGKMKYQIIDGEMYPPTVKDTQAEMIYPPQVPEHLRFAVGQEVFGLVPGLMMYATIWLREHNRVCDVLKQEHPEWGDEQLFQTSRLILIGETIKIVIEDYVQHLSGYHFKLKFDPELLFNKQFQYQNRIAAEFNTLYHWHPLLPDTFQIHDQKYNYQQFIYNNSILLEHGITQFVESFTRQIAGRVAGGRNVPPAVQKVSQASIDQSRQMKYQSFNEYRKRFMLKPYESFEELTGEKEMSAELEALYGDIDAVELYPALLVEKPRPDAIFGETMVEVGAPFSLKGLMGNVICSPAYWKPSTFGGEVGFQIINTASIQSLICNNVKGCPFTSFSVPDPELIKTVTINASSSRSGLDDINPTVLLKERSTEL
Method: (§5) This assay examined the inhibitory potency of the target structures towardboth COX isoforms via colorimetric screening assay kit (Cayman Chemical, MI, United States) based on the directions provided by the manufacturer. ELISA reader Thermo Scientific Multiskan® EX (Thermo scientific, United States) was used. […] Serial dilutions of CLX, as a reference standard, and tested compounds at concentrations of 1000, 300, 100, 30, 10, 3, 1, and 0.30 nM were used in the assay. IC50 of the tested compounds were determined using three different experiments. The selectivity (SI) of each ompound was measured using the COX-2/COX-1 ratio, which compares the IC50 of COX-2 and COX-1.

COX-1 = target: T2, COX-1 (Ovis aries, UniProt P05979); assay: In vitro COX-1 inhibition, colorimetric screening assay kit; details: for HillSlope (best-fit value), COX-1 inhibition / LogIC50 (best-fit value), COX-1 inhibition: supplementary dose-response curve
T2 sequence (P05979 25-600): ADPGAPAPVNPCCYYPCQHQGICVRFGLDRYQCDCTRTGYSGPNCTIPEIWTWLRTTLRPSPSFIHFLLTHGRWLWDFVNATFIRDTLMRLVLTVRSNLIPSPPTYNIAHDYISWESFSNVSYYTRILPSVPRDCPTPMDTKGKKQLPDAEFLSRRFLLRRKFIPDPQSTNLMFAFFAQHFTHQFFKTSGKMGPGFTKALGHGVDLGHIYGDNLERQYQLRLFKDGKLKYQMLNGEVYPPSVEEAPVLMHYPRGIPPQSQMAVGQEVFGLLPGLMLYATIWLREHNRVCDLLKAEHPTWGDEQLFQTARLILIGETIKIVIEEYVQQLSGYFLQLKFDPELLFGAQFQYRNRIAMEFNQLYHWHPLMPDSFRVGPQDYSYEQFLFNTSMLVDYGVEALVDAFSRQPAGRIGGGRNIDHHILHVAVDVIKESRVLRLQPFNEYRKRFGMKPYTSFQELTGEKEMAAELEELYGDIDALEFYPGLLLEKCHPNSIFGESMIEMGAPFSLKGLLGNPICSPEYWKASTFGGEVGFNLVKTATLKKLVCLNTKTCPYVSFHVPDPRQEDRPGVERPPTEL
Method: as §5

COX-2 [5] = details: printed in Figure 1, comparator of an unlabelled compound; cited from earlier work
[6] = parameters: method as in PMID 29426771, PMID 11600237, PMID 33266208, PMID 19084415, PMID 35423143; details: Figure 1; cited from earlier work

Structure (SMILES) | percentage of paw swelling compared to the carrageenan group [1] | semi-quantitative inflammation score (H&E) compared to the carrageenan group [2] | NF-κB positive expression score compared to the carrageenan group (NF-κB) | COX-2 positive expression score compared to the carrageenan group (COX-2 [3]) | PGE2 paw tissue level in comparison to the CLX group (PGE2) | PGE2 paw tissue level compared to the carrageenan group (PGE2) | TNF-α lowering effect compared with CLX (TNF-α) | TNF-α paw tissue level compared to the carrageenan group (TNF-α) | NO paw tissue content compared to CLX (nitric oxide (NO)) | melting point [°C] | IC50 (COX-2 [4]) [nM] | (SI) in vitro COX-2 selectivity index (COX-2 [4]) | HillSlope (best-fit value), COX-2 inhibition (COX-2 [4]) | LogIC50 (best-fit value), COX-2 inhibition (COX-2 [4]) | IC50 (COX-1) [nM] | HillSlope (best-fit value), COX-1 inhibition (COX-1) | LogIC50 (best-fit value), COX-1 inhibition (COX-1) | other results
Cc1c(NC(=O)CSc2nnc(-c3ccc(Br)cc3)o2)c(=O)n(-c2ccccc2)n1C [4c, 2-((5–(4-Bromophenyl)-1,3,4-oxadiazol-2-yl)thio)-N-(1,5-dimethyl-3-oxo-2-phenyl-2,3-dihydro-1H-pyrazol-4-yl)acetamide] | marked lower percentages of paw swelling | decreased | decreased | decreased | higher levels | reduced | higher | decrease | lower | 173 to 175 | 69.8 ± 2.14 | 1.86 | -0.3652 | 1.844 Log (nM) | 130 ± 2.3 | -0.4106 | 2.112 Log (nM) | PGE2 paw tissue level compared to the 4b group (PGE2; P < 0.05): lower; NO paw tissue content compared to 4 b (nitric oxide (NO); P < 0.05): lower
Cc1cnc(NC(=O)C2=C(O)c3ccccc3S(=O)(=O)N2C)s1 [Meloxicam] |  |  |  |  |  |  |  |  |  |  |  |  |  |  |  |  |  | % inhibition against COX-2 (COX-2 [5]): 44.95%
CC(=O)Nc1nnc(SCC(=O)Nc2c(C)n(C)n(-c3ccccc3)c2=O)s1 [Compound A] |  |  |  |  |  |  |  |  |  |  |  |  |  |  |  |  |  | more active than diclofenac Na as antiinflammatory [6]: 46%
Cc1c(NC(=O)CSc2nnc(-c3ccc(Cl)cc3)o2)c(=O)n(-c2ccccc2)n1C [4b, 2-((5–(4-Chlorophenyl)-1,3,4-oxadiazol-2-yl)thio)-N-(1,5-dimethyl-3-oxo-2-phenyl-2,3-dihydro-1H-pyrazol-4-yl)acetamide] | marked lower percentages of paw swelling | decreased | decreased | decreased | higher levels | reduced | higher | decrease | higher | 190 to 192 | 53.8 ± 2.05 | 4.44 | -0.2859 | 1.730 Log (nM) | 238.5 ± 2.08 | -0.4124 | 2.378 Log (nM) | 
Cc1ccc(-c2cc(C(F)(F)F)nn2-c2ccc(S(N)(=O)=O)cc2)cc1 [Celecoxib, reference compound] | marked lower percentages of paw swelling | decreased | decreased |  |  | reduced |  | decrease |  |  |  |  |  |  |  |  |  | 
